The text below walks through data of PubChem BioAssay AID463229 (Broad Institute, 2010).

This test relates to INS-1E rat beta cells, no cytokines, CellTiter-Glo ATP, 48 h. Put plainly: ATP level change in INS-1E without cytokines, dose response, counter-screen for beta-cell apoptosis protection project, INS-1E rat cells, ATP luminescence, cherry pick (AID 463229). Background: A counterscreen serves to expose hits that act by an unwanted route or on another target.
In general, AC50 refers to the midpoint of the concentration-response curve, whichever way the signal moves. Consider `C#CCOCCOCCOCCNc1nc(N2CCN(C(=O)CCCCCCCCCCNC(=O)[C@H](CCCCN)n3cc(C)nn3)CC2)nc(N2CCN(C(=O)CCCCCCCCCCNC(=O)[C@@H]([C@H](C)CC)n3cc(CCCCCN)nn3)CC2)n1`, for which the half-maximal activity concentration (AC50) is 6.78 µM.

Consider `COc1ccc(C(=O)Nc2ccccc2C(=O)N/N=C/c2ccccn2)cc1OC`, for which the AC50 is 8.14 µM.

For the molecule `Nc1c(Cl)ncnc1N/N=C/c1ccccn1`, the AC50 was 2.07 µM.

`COc1cc(C(=O)NC(=S)NNC(=O)c2cnccn2)cc(OC)c1OC`: the AC50 was 7.66 µM.

With `S=C(c1cn(CCOc2cccc3ccccc23)c2ccccc12)N1CCCC1`, the AC50 is 7.48 µM.

As for `N#CC(c1ccc(Cl)cc1)c1ccc2c(C(F)(F)F)cc(C(F)(F)F)nc2n1` (configuration not stated), the AC50 was 0.898 µM.

As for `CCC(C)(C)c1ccc(OCCCC[n+]2ccccc2)c(C(C)(C)CC)c1`, the half-maximal activity concentration (AC50) was 2.27 µM.

As to `CCCCC[n+]1cccc2c3ccccc3ccc21`, the AC50 is 5.92 µM.

`Cc1nnsc1-c1onc(C)c1C(=O)Nc1cc(Cl)cc(Cl)c1`: the AC50 is 16.5 µM.

For `Cc1ccccc1/C=C/C(=O)c1ccc([N+](=O)[O-])o1`, the concentration at half-maximal activity (AC50) is 5.07 µM.

Consider `N#CC1=C(N)Oc2c(ccc3cccnc23)C1c1ccccc1` (configuration not stated), for which the AC50 was 19.3 µM.

On to `CC(C)(C)OC(=O)NCc1ccc(NC(=O)c2nc[nH]c2C(=O)NCCCCNC(=O)c2[nH]cnc2C(=O)Nc2ccc(CNC(=O)OC(C)(C)C)cc2)cc1`, for which the AC50 is 5.34 µM.

As for `COc1ccc(O)c(/C=N/NC(=O)c2ccc(OCc3cccc(Br)c3)cc2)c1`, the AC50 was 19.8 µM.

For the molecule `Cc1ccc(NC(=O)Cc2nn(C)c(=O)c3ccccc23)cc1F`, the AC50 was 6.97 µM.

For `Cn1nc(C(C)(C)C)cc1C(=O)NCc1ccc(N2CCCC2=O)cc1`, the AC50 was 5.65 µM.

As for `Cc1csc2c(N3CCN(C(=O)c4ccc(C(C)(C)C)cc4)CC3)ncnc12`, the AC50 is 14.9 µM.

For `Oc1c(Br)cc(Br)cc1/C=N/Nc1ccc(Cl)nn1`, the AC50 was 1.21 µM.

As to `Cc1ccc(-c2c[n+](Cc3ccc(Cl)cc3)c3n2CCC3)cc1`, the AC50 is 7.79 µM.

Consider `c1ccc2c(c1)OCC(CNc1ncnc3sccc13)O2` (configuration not stated), for which the AC50 was 1.6 µM.

With `CCN1CCN(c2c(Cl)cccc2NC(=O)c2ccc([N+](=O)[O-])o2)CC1`, the concentration at half-maximal activity (AC50) was 7.11 µM.

Consider `COc1ccc(N/N=C(/N=Nc2nc(C)cc(=O)[nH]2)c2ccccc2)cc1`, for which the AC50 was 1.78 µM.

Take `Cc1ccc(-c2nc(NC(=O)c3nn(C)cc3[N+](=O)[O-])sc2C)cc1`: the concentration at half-maximal activity (AC50) is 5.47 µM.

In the case of `COc1ccc(C2/C=C\CN(C(=O)C3CC3)[C@H](Cc3ccccc3)C(=O)N2Cc2ccc(F)cc2)cc1` (some centres not stated), the AC50 was 14.5 µM.

With `Oc1[nH]c(N=C2N=c3ccccc3=N2)c2ccccc12`, the AC50 is 3.44 µM.

For `CCCCCc1cc(=O)oc2c(C(CCN3CCCC(C)C3)c3ccc(OC)cc3)c(OC)cc(OC)c12` (configuration not stated), the AC50 is 14.2 µM.

Turning to `COc1ccc(/C=N/Nc2cc(C)nc(-n3nc(C)cc3C)n2)cc1`, the AC50 is 16.1 µM.

For `CC1=NN(c2ccc(C)c(C)c2)C(=O)/C1=C\C=C\c1ccc([N+](=O)[O-])o1`, the AC50 was 7.6 µM.

Take `Cc1cccnc1Nc1nc(-c2ccccn2)cs1`: the AC50 is 2.58 µM.

In the case of `COc1ccc2cc1Oc1ccc(cc1)C[C@H]1c3cc(c(OC)cc3CCN1C)Oc1c(O)c(OC)cc3c1[C@H](C2)N(C)CC3`, the AC50 is 7.07 µM.

As for `O=C(Nc1ccc(OC(F)(F)F)cc1)Nc1cccc([N+](=O)[O-])c1`, the AC50 was 3.8 µM.

Consider `C/C(=N\NC(=O)C(c1ccccc1)c1ccccc1)c1ccccn1`, for which the AC50 is 8.03 µM.

Take `NS(=O)(=O)c1ccc(N/N=C2/CCCCC2C2CCCCC2)c([N+](=O)[O-])c1` (configuration not stated): the AC50 is 8.1 µM.

For the molecule `Cc1ccc(Nc2nc(NCc3ccco3)c3ccccc3n2)cc1`, the AC50 is 8.02 µM.

Take `CC(=O)NC(c1cccs1)c1cc(F)c2cccnc2c1O` (configuration not stated): the AC50 was 6.05 µM.

Take `O=C(NCCCn1ccnc1)c1ccc(-c2ccccc2)cc1`: the AC50 was 8.12 µM.

`COc1ccc(CNCCc2c(C)[nH]c3ccc(OC(F)(F)F)cc23)c(OC)c1`: the AC50 is 6.6 µM.

For the molecule `CC(=O)N1c2ccc(S(=O)(=O)N3CCC(C(=O)N4CCN(c5cccc(C(F)(F)F)c5)CC4)CC3)cc2CC1C` (configuration not stated), the AC50 was 5.82 µM.

As to `CCO[C@H]1OC(C(=O)N2CCN(Cc3ccc4c(c3)OCO4)CC2)=C[C@@H](c2csc3ccccc23)[C@@H]1CCCO`, the concentration at half-maximal activity (AC50) was 6.01 µM.

`COc1ccc(C2/C=C\CN(C(=O)Nc3ccc(C(F)(F)F)cc3)CC(=O)N2Cc2ccc(F)cc2)cc1` (configuration not stated): the AC50 is 7.66 µM.

For `COc1cc(CNC2CCCC2)cc(Cl)c1OCc1ccccc1Cl`, the AC50 is 14.6 µM.

Turning to `CCN(CC)c1ccc(CNc2nc3ccccc3n2CCN2CCCCC2)cc1`, the AC50 is 7.26 µM.

For `Cc1sc2ncnc(N3CCN(S(=O)(=O)c4ccccc4)CC3)c2c1C`, the concentration at half-maximal activity (AC50) is 5.98 µM.

With `O=C(Nc1nc2ccccc2s1)c1cc(-c2ccccc2)nn1-c1ccccc1`, the AC50 was 3.74 µM.

For `Cc1ccc(S(=O)(=O)Nc2ccc(NC(=O)Nc3cccc(C(F)(F)F)c3)cc2)cc1`, the AC50 was 11.9 µM.

Turning to `O=C(N/N=C/c1cc([N+](=O)[O-])ccc1O)c1cc(-c2ccccc2)nc2ccccc12`, the AC50 is 5.78 µM.

Regarding `Cc1cc(C(=O)C(C)OC(=O)c2ccc(NC(=O)CC#N)cc2)c(C)n1-c1ccc(OC(F)F)cc1` (configuration not stated), the AC50 is 8.14 µM.

As to `O=C(c1cc2sccc2n1Cc1ccc(F)cc1)N1CCN(c2nc3ccccc3s2)CC1`, the AC50 was 5.82 µM.

Turning to `COc1ccc(-n2cc(-c3ccc(C)cc3)[n+]3c2SCC3)cc1`, the AC50 is 0.924 µM.

`O=C(Nc1cc(-c2ccccc2)nn1C1CCCCC1)c1ccc(Cl)cc1`: the concentration at half-maximal activity (AC50) is 3.67 µM.

Consider `CC(=O)Nc1ccc(NC(=O)CN(c2cccc([N+](=O)[O-])c2)S(C)(=O)=O)cc1`, for which the AC50 is 6.49 µM.

Regarding `O=C(Nc1cccnc1)c1cccs1`, the AC50 was 1.86 µM.

Consider `CCCCC(=O)NC(c1ccc(Cl)cc1Cl)c1ccc2cccnc2c1O` (configuration not stated), for which the AC50 is 2.22 µM.

With `C=C(C=O)C[C@@H]1C[C@H](O)C2OC3C[C@]4(C)OC5/C=C\CC6OC7C(CC=CCC6OC5CCCC4OC3CC2O1)OC1CC2OC3CC(=O)OC3C[C@@H](C)C[C@@]2(C)OC1C[C@@H]7C` (some centres not stated), the AC50 is 3.79 µM.

Take `Cc1cc(N/N=C/c2ccc(O)cc2O)nc(-n2nc(C)cc2C)n1`: the AC50 was 6.67 µM.

Take `Brc1ccc(CN2CCN(Cc3c[nH]c4ccccc34)CC2)cc1`: the AC50 is 6.91 µM.

Consider `CCN(CC)CCOc1ccc2c(c1)C(=NO)c1cc(OCCN(CC)CC)ccc1-2`, for which the concentration at half-maximal activity (AC50) was 14.1 µM.

For the molecule `O=C(Nc1ccc([N+](=O)[O-])cc1)Nc1nc(-c2ccc(Cl)s2)cs1`, the AC50 is 1.88 µM.

As for `CCN(CC)c1ccc(/C=N/NC(=O)c2cccc(S(=O)(=O)Nc3ccccc3OC)c2)c(O)c1`, the AC50 is 1.62 µM.

Take `O=C(CNc1ccc(F)cc1)N/N=C/c1c(O)ccc2ccccc12`: the AC50 is 19.5 µM.

As to `N#CCC(=O)N/N=C/c1cc(-c2ccccc2)n(-c2ccc(Cl)cc2)c1-c1ccccc1`, the AC50 was 2.29 µM.

For the molecule `CC(C)CC(=O)NC(c1cccs1)c1ccc2cccnc2c1O` (configuration not stated), the AC50 was 2.33 µM.

For `COc1ccc(CC(=O)Nc2cccc(S(=O)(=O)N3CCCCCC3)c2)cc1OC`, the AC50 is 10 µM.

With `O=C(CNC(=O)c1ccccc1O)N/N=C/c1cc(Br)ccc1OC(=O)/C=C/c1ccco1`, the AC50 is 10.7 µM.

With `C/C(=N\Nc1ccc2nncn2n1)c1ccccn1`, the AC50 was 2.72 µM.

As for `CN(C)CCNC(=O)/C(=C/c1ccc(-c2ccc(Cl)cc2Cl)o1)NC(=O)c1ccccc1`, the AC50 is 9.44 µM.

In the case of `Nc1c(Cl)ncnc1N/N=C/c1ccc2ccccc2n1`, the AC50 was 4.38 µM.

Consider `Cc1ccc(C2C(C=Nc3c(C)n(C)n(-c4ccccc4)c3=O)=C(c3ccccc3)Oc3ccccc32)cc1` (configuration not stated), for which the concentration at half-maximal activity (AC50) was 7.38 µM.

`Oc1[nH]c2ccc(Br)cc2c1N=NC(=S)N1CCOCC1`: the AC50 was 2.39 µM.

Take `Cc1ccc(Nc2c(-c3ccccn3)nc3ccc(C)cn23)cc1`: the AC50 is 7.28 µM.

Turning to `CNC1=C(N(C(C)=O)c2ccc(Br)cc2)C(=O)c2ccccc2C1=O`, the concentration at half-maximal activity (AC50) is 0.943 µM.

Consider `CCOC(=O)C(=CNc1ccc(C(O)(C(=O)OCC)C(F)(F)F)cc1C)C(=O)OCC` (configuration not stated), for which the AC50 was 5.26 µM.

With `CC(C)(C)c1cc([N+](=O)[O-])cc(C(C)(C)C)c1O`, the AC50 is 2.8 µM.

For the molecule `O=C(Cc1ccc(Cl)cc1)c1c[nH]c(C(=O)NCc2cccnc2)c1`, the concentration at half-maximal activity (AC50) is 0.665 µM.

In the case of `CNC(=O)c1cc(Oc2ccc(NC(=O)Nc3ccc(Cl)c(C(F)(F)F)c3)cc2)ccn1`, the concentration at half-maximal activity (AC50) is 7.39 µM.

In the case of `CC(C)C(=O)NC(c1ccccc1)c1cc([N+](=O)[O-])c2cccnc2c1O` (configuration not stated), the concentration at half-maximal activity (AC50) is 10.6 µM.

Regarding `Cc1ccc(-n2c(-c3ccccc3)c[n+]3c2CCC3)cc1`, the AC50 is 3.11 µM.

For `C[n+]1c2n(c3ccccc31)N=C(c1ccc(Cl)cc1)CS2`, the AC50 is 4.29 µM.

Regarding `O=C(CN1CCCc2ccccc21)N/N=C/c1ccccc1O`, the concentration at half-maximal activity (AC50) was 15 µM.

With `CCOc1ccc(OCc2ccc(C(=O)N/N=C(\C)c3ccccn3)cc2)cc1`, the AC50 was 5.09 µM.

On to `CCC(=NNC(=O)c1ccc2c(c1)nc(C)n2CC)c1cc(F)ccc1O`, for which the AC50 was 9.84 µM.

In the case of `O=C1C(Cl)=C(NCc2cccnc2)C(=O)c2ccccc21`, the AC50 was 14.3 µM.

For the molecule `O=C(COC(=O)c1cn(-c2ccccc2)nc1-c1ccccc1)c1cccc([N+](=O)[O-])c1`, the AC50 is 2.8 µM.

On to `COc1cc(SC#N)ccc1N=Cc1c(C)[nH]n(-c2ccc(C)cc2)c1=O`, for which the AC50 is 8.46 µM.

`O=C(NCC#CCSc1nnc(-c2cccc3ccccc23)o1)c1cccs1`: the AC50 was 1.9 µM.

For the molecule `COc1ccc2nc(/C(C#N)=C\c3ccc(Oc4ccc([N+](=O)[O-])cn4)cc3)[nH]c2c1`, the AC50 was 6.77 µM.

With `O=c1cnnc(N/N=C/c2ccccn2)[nH]1`, the AC50 was 3.93 µM.

In the case of `CC[n+]1ccc(/C=C/c2c[nH]c3ccccc23)cc1`, the AC50 was 5.85 µM.

As to `O=[N+]([O-])c1cccnc1N/N=C/c1ccccc1O`, the AC50 is 5.45 µM.

With `Cc1cc(C)cc(NC(=O)/C(C#N)=C/c2cn(CC(=O)NCc3ccco3)c3ccccc23)c1`, the AC50 is 5.06 µM.

For `N#CC(C#N)=C(Nc1ccc(F)cc1)SCc1cccc(Br)c1`, the AC50 was 3.02 µM.

With `NC(=O)c1ccc(N2CCN(S(=O)(=O)c3cccs3)CC2)c([N+](=O)[O-])c1`, the concentration at half-maximal activity (AC50) was 6.36 µM.

`CC1CCC(C(C)C)C(OC(=O)C[n+]2cc(-c3ccc(Cl)cc3)n3c2CCCCC3)C1` (configuration not stated): the AC50 is 7.32 µM.
